Test results taken from patent publication US10117871B2, “3-hydroxypyrimidine-2,4-dione-5-carboxamides as potent inhibitors of HIV” (Regents of the University of Minnesota, priority 2015, dated 2018).
Where two headings read alike, the source gives them in different places.

How the values were obtained:
[1] = system: HIV-1 clone 8070-2 (G140S/Q148H); format: cell-based; details: EC50(mutant)/EC50(WT)
HIV-1IIIB = test: HIV-1 cytoprotection (CPE reduction) antiviral assay; format: cell-based; details: for inhibition at 10 µM: read-out: CPE reduction %; for antiviral activity, in words: single concentration 10 μM, CPE assay
Description: (§1) The antiviral activity of newly synthesized analogues of chemotype 7 was evaluated against HIV-1IIIB in CEM-SS cells using an assay based on viral cytopathic effect (CPE). In this assay, the reduction of CPE was used to indicate the antiviral activity of a compound.
Briefly virus and cells were mixed in the presence of test compound and incubated for 6 days. […] Each assay plate contained cell control wells (cells only), virus control wells (cells plus virus), compound toxicity control wells (cells plus compound only), compound colorimetric control wells (compound only) as well as experimental wells (compound plus cells plus virus). Cytoprotection and compound cytotoxicity were assessed by MTS (CellTiter® 96 Reagent, Promega, Madison Wis.) and the EC50 (concentration inhibiting virus replication by 50%), CC50 (concentration resulting in 50% cell death) and a calculated TI (therapeutic index CC50/EC50) were provided. Each assay included AZT as a positive control.

[2] = system: HIV-1 clone 8070-1 (G140S/Y143H/Q148H); format: cell-based; details: EC50(mutant)/EC50(WT)
[3] = system: HIV-1 clone 4736-2 (N155H); format: cell-based; details: EC50(mutant)/EC50(WT)
[4] = system: HIV-1 clone 1556-1 (Y143C); format: cell-based; details: EC50(mutant)/EC50(WT)
CEM-SS cells = test: Compound cytotoxicity (MTS) in the HIV cytoprotection assay; format: cell-based; details: for CC50: Concentration resulting in 50% cell death; for Cell viability %: 10 μM, CEM-SS cells
Description: as §1
(§2) Briefly virus and cells were mixed in the presence of test compound and incubated for 6 days. […] Each assay plate contained cell control wells (cells only), virus control wells (cells plus virus), compound toxicity control wells (cells plus compound only), compound colorimetric control wells (compound only) as well as experimental wells (compound plus cells plus virus). […] Each assay included AZT as a positive control.

HIV-1 integrase = target: T1, HIV-1 integrase (Human immunodeficiency virus type 1 group M subtype B, UniProt P04585); test: HIV-1 integrase strand transfer (INST) assay; format: biochemical
T1 construct: HIV integrase was expressed and purified as previously reported; made in house; host or cells: Escherichia coli
Description: HIV integrase was expressed and purified as previously reported.^43 Inhibition assays were performed using a modified protocol of a reported method.^43 Briefly, 2.1 μL of compound suspended in DMSO was placed in duplicate into a Black 96 well non-binding plate (coming 3991). Compounds were plated in duplicate to a final concentration of 0.13-100 μM. To each well of the plate 186.9 μL of reaction mixture without DNA substrate was added (10 mM HEPES pH 7.5, 10% glycerol w/v, 10 mM MnCl2, 1 mM DTT, 1 μM integrase). The enzyme was incubated with inhibitor for 10 min at 25° C. after which the reaction was initiated by the addition of 21 μL of 500 nM oligo (5′ biotin […] annealed with […] 3′ Cy5). Reactions were incubated at 37° C. for 30 min and then quenched by the addition of 5.2 μL 500 mM EDTA. Each reaction was moved (200 μL) to a MultiScreen HTS PCR plate (Millipore MSSLBPC10) containing 20 μL streptavidin agarose beads (Life Technologies S951) and incubated with shaking for 30 min. A vacuum manifold was used to remove the reaction mixture and the beads were similarly washed 3 times with wash buffer (0.05% SDS, 1 mM EDTA in PBS). The plates were further washed 3 times with 200 μL 50 mM NaOH to denature DNA not covalently linked to the biotin modification. For each denaturation step the plate was incubated with shaking at 25° C. for 5 min and the NaOH was removed by centrifugation at 1000 g for 1 min. The reaction products were eluted from the beads by the addition of 150 μL formamide. The plate was incubated at 25° C. for 10 min and read directly at 635/675 in a SpectraMax i3 plate reader (Molecular Devices). Expression and purification of the recombinant IN in Escherichia coli were performed as previously reported^39, 44 with addition of 10% glycerol to all buffers. Preparation of oligonucleotide substrates has been described.^45 Integrase reactions were performed in 10 μL with 400 nM of recombinant IN, 20 nM of 5′-end [^32P]-labeled oligonucleotide substrate and inhibitors at various concentrations. Solutions of 10% DMSO without inhibitors were used as controls. Reactions were incubated at 37° C. (60 minutes) in buffer containing 50 mM MOPS, pH 7.2, 7.5 mM MgCl2, and 14.3 mM 2-mercaptoethanol. Reactions were stopped by addition of 10 μL of loading dye (10 mM EDTA, 98% deionized formamide, 0.025% xylene cyanol and 0.025% bromophenol blue). Reactions were then subjected to electrophoresis in 20% polyacrylamide-7 M urea gels. Gels were dried and reaction products were visualized and quantitated with a Typhoon 8600 (GE Healthcare, Little Chalfont, Buckinghamshire, UK). Densitometric analyses were performed using ImageQuant from Molecular Dynamics Inc. The concentrations at which enzyme activity was reduced by 50% (IC50) were determined using “Prism” software (GraphPad Software, San Diego, Calif.) for nonlinear regression to fit dose-response data to logistic curve models.

[5] = Aqueous stability in DPBS; format: physicochemical; details: DPBS (37° C.) over a 24 h period
Description: To assess drug-like properties of chemotype 7, selected analogues were tested in various in vitro ADME studies (Table 5). Aqueous stability and solubility were evaluated in Dulbecco's Phosphate-Buffered Saline (DPBS). […] Assessment of plasma and microsomal stability as well as plasma protein binding was done in two species, human and mouse. […] Microsomal stability of the compounds were evaluated in liver microsomes using either NADPH (phase I) or UDPGA (phase II) as cofactor.

[6] = Compound cytotoxicity (MTS) in the HIV cytoprotection assay; format: cell-based; details: human
Description: as §1, §2

[7] = Human immunodeficiency virus 1, 10 μM, HIV-1IIIB in CEM-SS cells
[8] = Human immunodeficiency virus 1, CEM-SS

Structure (SMILES) | IC50 (HIV-1 integrase; read-out: INST IC50) [nM] | inhibition at 10 µM (HIV-1IIIB; [7]) [%] | Cell viability % (CEM-SS cells) [%] | other results
Cc1cn([C@H]2C[C@H](N=[N+]=[N-])[C@@H](CO)O2)c(=O)[nH]c1=O [AZT, reference compound] | – | – | – | Fold-resistance [1]: 0.5; EC50 (HIV-1IIIB; Concentration inhibiting virus replication by 50%, dose response, read-out: EC50): 80 nM; Fold-resistance [2]: 0.9; Fold-resistance [3]: 0.7; Fold-resistance [4]: 1.4; CC50 (CEM-SS cells): > 10000 nM
CCNc1[nH]c(=O)n(O)c(=O)c1C(=O)NCc1cccc(Cl)c1F [Compound 7-xxiii, N-(3-Chloro-2-fluorobenzyl)-1-(hydroxy)-4-(ethylamino)-1,2,3,6-tetrahydro-2,6-dioxopyrimidine-5-carboxamide] | 21 ± 2 | 100 | 100 | Fold-resistance [1]: 13; EC50 (HIV-1IIIB; Human immunodeficiency virus 1): 15 nM; Fold-resistance [2]: 6.3; Fold-resistance [3]: 2.4; Fold-resistance [4]: 0.4; CC50 (CEM-SS cells): 18000 nM
CCNc1[nH]c(=O)n(O)c(=O)c1C(=O)NCc1ccc(Cl)c(F)c1 [Compound 7-xxii, N-(4-Chloro-3-fluorobenzyl)-1-(hydroxy)-4-(ethylamino)-1,2,3,6-tetrahydro-2,6-dioxopyrimidine-5-carboxamide] | 120 ± 21 | 100 | 100 | remaining in DPBS [5]: 86%; EC50 (HIV-1IIIB; Human immunodeficiency virus 1): 190 nM; CC50 (CEM-SS cells): 19000 nM
CNc1[nH]c(=O)n(O)c(=O)c1C(=O)NCc1ccccc1 [Compound 7-v, N-Benzyl-1-(hydroxy)-1,2,3,6-tetrahydro-4-(methylamino)-2,6 dioxopyrimidine-5-carboxamide] | 80 ± 7 | 100 | 98 | EC50 (HIV-1IIIB; Human immunodeficiency virus 1): 830 nM; CC50 (CEM-SS cells): 58000 nM
CCNc1[nH]c(=O)n(O)c(=O)c1C(=O)NCc1cc(F)cc(F)c1 [Compound 7-xix, N-(3,5-Difluorobenzyl)-1-(hydroxy)-4-(ethylamino)-1,2,3,6-tetrahydro-2,6-dioxopyrimidine-5-carboxamide] | 230 ± 62 | 100 | 100 | –
O=C(NCc1ccc(F)cc1)c1c(Nc2ccc(-c3ccccc3)cc2)[nH]c(=O)n(O)c1=O [Compound 7-iv, N-(4-Fluorobenzyl)-1-(hydroxy)-1,2,3,6-tetrahydro-2,6-dioxo-4-(biphenylamino)pyrimidine-5-carboxamide] | > 100000 | 0 | 9.1 | –
CCNc1[nH]c(=O)n(O)c(=O)c1C(=O)NCc1cc(F)ccc1F [Compound 7-xvii, N-(2,5-Difluorobenzyl)-1-(hydroxy)-4-(ethylamino)-1,2,3,6-tetrahydro-2,6-dioxopyrimidine-5-carboxamide] | 68 ± 11 | – | 92 | IC50 (HIV-1 integrase; read-out: IC50 (ST)): 21 to 77 nM; inhibition at 10 µM (HIV-1IIIB; [8]): 100%; EC50 (HIV-1IIIB; Human immunodeficiency virus 1, Concentration inhibiting virus replication by 50%, dose response, read-out: EC50): 32 nM; EC50 (HIV-1IIIB; Human immunodeficiency virus 1, summary of Table 2, read-out: EC50): 15 to 61 nM; CC50 at 6 days [6]: 47000 nM
O=C(NCc1cccc(F)c1)c1c(Nc2ccc(-c3ccccc3)cc2)[nH]c(=O)n(O)c1=O [Compound 7-iii, N-(3-Fluorobenzyl)-1-(hydroxy)-1,2,3,6-tetrahydro-2,6-dioxo-4-(biphenylamino)pyrimidine-5-carboxamide] | > 100000 | 0 | 8.7 | –
CCNc1[nH]c(=O)n(O)c(=O)c1C(=O)NCc1cccc(F)c1 [Compound 7-xv, N-(3-Fluorobenzyl)-1-(hydroxy)-4-(ethylamino)-1,2,3,6-tetrahydro-2,6-dioxopyrimidine-5-carboxamide] | 68 ± 7 | 100 | 90 | –
CC(C)Nc1[nH]c(=O)n(O)c(=O)c1C(=O)NCc1ccccc1 [Compound 7-viii, N-Benzyl-1-(hydroxy)-1,2,3,6-tetrahydro-4-(isopropylamino)-2,6-dioxopyrimidine-5-carboxamide] | 150 ± 34 | 0 | 17 | antiviral activity, in words (HIV-1IIIB): inactive; cytotoxicity, in words (CEM-SS cells; single concentration 10 μM): cytotoxic
Nc1[nH]c(=O)n(O)c(=O)c1C(=O)NCc1ccccc1 [Compound 7-xi, 4-Amino-N-benzyl-1-(hydroxy)-1,2,3,6-tetrahydro-2,6-dioxopyrimidine-5-carboxamide] | 900 ± 290 | 99 | 100 | –
CNc1[nH]c(=O)n(O)c(=O)c1C(=O)NCc1ccc(F)cc1 [Compound 7-xiii, N-(4-Fluorobenzyl)-1-(hydroxy)-1,2,3,6-tetrahydro-4-(methylamino)-2,6-dioxopyrimidine-5-carboxamide] | 110 ± 21 | 100 | 89 | –
CCNc1[nH]c(=O)n(O)c(=O)c1C(=O)NCCCl [Compound 7-xxvii, 1-(Hydroxy)-N-(2-chloroethyl)-4-(ethylamino)-1,2,3,6-tetrahydro-2,6-dioxopyrimidine-5-carboxamide] | – | – | 100 | inhibition of ST in the ST assay, in words (HIV-1 integrase): none; inhibition at 10 µM (HIV-1IIIB; [8]): 5.1%; antiviral activity, in words (HIV-1IIIB): completely abrogated antiviral activity
CNc1[nH]c(=O)n(O)c(=O)c1C(=O)NCc1cccc(F)c1 [Compound 7-xii, N-(3-Fluorobenzyl)-1-(hydroxy)-1,2,3,6-tetrahydro-4-(methylamino)-2,6-dioxopyrimidine-5-carboxamide] | 250 ± 48 | 100 | 95 | –
